Measurements as given in the supplement of paper PMC13380429.

Tests used:
Conditions in all cases: 72 h
HepG2 [1] = experiment: relative viability EC50 (midpoint between 100% and the lowest measured viability); higher = less toxic
Calu-3 [2] = experiment: as above
Vero E6 [3] = experiment: as above
Caco-2 [4] = experiment: as above
HepG2 [5] = experiment: drug sensitivity score (DSS) for viability; higher = more toxic; extreme values may be limits of the assay
Calu-3 [6] = experiment: as above
Vero E6 [7] = experiment: as above
Caco-2 [8] = experiment: as above
HepG2 [9] = experiment: cell viability relative to DMSO; higher = less toxic
Calu-3 [10] = experiment: as above
Vero E6 [11] = experiment: as above
Caco-2 [12] = experiment: as above
U2OS [13] = experiment: drug sensitivity score (DSS) for viability; higher = more toxic; extreme values may be limits of the assay
U2OS [14] = experiment: cell viability relative to DMSO; higher = less toxic
U2OS [15] = experiment: relative viability EC50 (midpoint between 100% and the lowest measured viability); higher = less toxic

Compound | relative viability EC50 (HepG2 [1]) [µM] | relative viability EC50 (Calu-3 [2]) [µM] | relative viability EC50 (Vero E6 [3]) [µM] | relative viability EC50 (Caco-2 [4]) [µM] | drug sensitivity score (HepG2 [5]) | drug sensitivity score (Calu-3 [6]) | drug sensitivity score (Vero E6 [7]) | drug sensitivity score (Caco-2 [8]) | cell viability (HepG2 [9]; 1 nM) [%] | cell viability (HepG2 [9]; 10 nM) [%] | cell viability (HepG2 [9]; 100 nM) [%] | cell viability (HepG2 [9]; 1000 nM) [%] | cell viability (HepG2 [9]; 10000 nM) [%] | cell viability (Calu-3 [10]; 1 nM) [%] | cell viability (Calu-3 [10]; 10 nM) [%] | cell viability (Calu-3 [10]; 100 nM) [%] | cell viability (Calu-3 [10]; 1000 nM) [%] | cell viability (Calu-3 [10]; 10000 nM) [%] | cell viability (Vero E6 [11]; 1 nM) [%] | cell viability (Vero E6 [11]; 10 nM) [%] | cell viability (Vero E6 [11]; 100 nM) [%] | cell viability (Vero E6 [11]; 1000 nM) [%] | cell viability (Vero E6 [11]; 10000 nM) [%] | cell viability (Caco-2 [12]; 1 nM) [%] | cell viability (Caco-2 [12]; 10 nM) [%] | cell viability (Caco-2 [12]; 100 nM) [%] | cell viability (Caco-2 [12]; 1000 nM) [%] | cell viability (Caco-2 [12]; 10000 nM) [%] | drug sensitivity score (U2OS [13]) | cell viability (U2OS [14]; 1 nM) [%] | cell viability (U2OS [14]; 10 nM) [%] | cell viability (U2OS [14]; 100 nM) [%] | cell viability (U2OS [14]; 1000 nM) [%] | cell viability (U2OS [14]; 10000 nM) [%] | relative viability EC50 (U2OS [15]) [µM]
CCOc1ccccc1N/N=C1/C(=O)N(c2nc(-c3ccccc3)cs2)N=C1C [BAM7] | > 10 | > 10 | > 10 | > 10 | 0.9 | 0 | 0 | 0 | 106 | 96.2 | 99.1 | 92.2 | 82.6 | 96.5 | 95.8 | 83.7 | 97.3 | 99.6 | 98.8 | 101 | 95.2 | 95.2 | 94.8 | 94.6 | 105 | 88.2 | 103 | 88.7 |  |  |  |  |  |  | 
CO[C@H]1CC[C@H](N2C(=O)CNc3ncc(-c4ccc(C(C)(C)O)nc4)nc32)CC1 [CC-223] | 2.39 | 1.11 |  | 1.36 | 4 | 6.6 | 3.7 | 5.8 | 103 | 95.6 | 98.9 | 94.6 | 42.9 | 94.6 | 87.1 | 106 | 74.4 | 41.6 | 110 | 104 | 99.8 | 92.5 | 52.7 | 102 | 104 | 99.4 | 81.9 | 42.7 | 2.6 | 99.1 | 95.6 | 102 | 97.7 | 56 | 
COc1ccc(-n2c(C)c([N+](=O)[O-])c3ccc(O)cc32)cc1 [ID-8] | > 10 | > 10 | > 10 | > 10 | 0 | 2.6 | 0 | 0 | 99.3 | 102 | 97.4 | 106 | 93.6 | 99.7 | 97.6 | 91.1 | 79.9 | 88.4 | 96.3 | 103 | 94.2 | 94.5 | 92.1 | 98.3 | 111 | 91 | 92.2 | 94.5 |  |  |  |  |  |  | 
Cc1c[nH]c2ncnc(N3CCC(CN)(C(=O)Nc4cccc(OC(=O)N(C)C)c4)CC3)c12 [LX7101] | > 10 | > 10 | > 10 | > 10 | 0.1 | 0 | 0 | 0.9 | 99.8 | 99.2 | 101 | 102 | 86.4 | 82.4 | 99.4 | 110 | 125 | 114 | 93.2 | 100 | 92.4 | 102 | 112 | 88.3 | 97.8 | 98.9 | 96 | 82.4 | 2.2 | 98 | 97.4 | 98.5 | 94 | 70.9 | 
Cc1cc(C)c2nc(-c3ccccn3)cc(C(=O)Nc3ccc(S(=O)(=O)Nc4onc(C)c4C)cc3)c2c1 [ML193] | > 10 | > 10 |  | > 10 | 0 | 0 |  | 0 | 89.7 | 108 | 100 | 97.2 | 104 | 97 | 93.5 | 96 | 86.3 | 94.9 |  |  |  |  |  | 95.2 | 90.1 | 101 | 83.7 | 114 | 0 | 100 | 98.7 | 103 | 98 | 98.4 | > 10
O=C(CN1CCN(C(=O)c2ccco2)CC1)Nc1cc(C(F)(F)F)ccc1Cl [ML348] | > 10 | > 10 | > 10 | > 10 | 0 | 0 | 0 | 0 | 96.9 | 98 | 93.1 | 106 | 104 | 118 | 95.7 | 102 | 104 | 95.5 | 98.4 | 98.8 | 94 | 98.3 | 94.6 | 96.3 | 89 | 97 | 96.1 | 91.1 |  |  |  |  |  |  | 
C[C@@H]1O[C@@H](O[C@H]2[C@H](Oc3cc(O)c4c(c3)O[C@H](c3ccc(O)cc3)CC4=O)O[C@H](CO)[C@@H](O)[C@@H]2O)[C@H](O)[C@H](O)[C@H]1O [Naringin (Naringoside)] | > 10 | > 10 |  | > 10 | 0 | 0 |  | 0 | 104 | 112 | 90 | 97.7 | 98.9 | 110 | 96.9 | 98.8 | 103 | 98.8 |  |  |  |  |  | 92.3 | 95.9 | 97.9 | 96.3 | 102 | 0 | 99.6 | 94.7 | 101 | 98.2 | 108 | > 10
O=C(O)C1CN(Cc2ccc(-c3nc4cc(Cc5ccccc5F)ccc4s3)c(F)c2)C1 [TC-SP-14] | > 10 | > 10 |  | > 10 | 0 | 0 |  | 0 | 109 | 121 | 90.3 | 119 | 90 | 91.2 | 90.5 | 102 | 95.1 | 107 |  |  |  |  |  | 97 | 81.7 | 84.2 | 99.1 | 81.8 | 0 | 99.4 | 97.9 | 98.8 | 102 | 101 | > 10
